In ChEMBL document CHEMBL1201862, “PubChem BioAssay data set” (2004):
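Results reflect a 48-hour exposure of cells in 96-well plates to compound at five concentrations. GI50 = concentration required for 50% inhibition of growth.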 The source made the active and inactive calls. No stated cut-off is given here; in the data, active = GI50 up to about 1.1 µM and inactive = higher. Numbered stars: 1 amine (or outer) side, 2 acyl side, 3 side chain; on linkers, the order of the positions; unused ones are H or OH. Bridge positions count the residues as written; N and C are the ends. Square brackets hold non-standard residues; d marks the D form. Peptide text beside a SMILES is read from it. * marks the point of attachment. ξ: configuration not given here. X33 = O=C(C(CCCCNO[*:3])N[*:1])[*:2]; Fmoc = O=C(OCC1c2ccccc2-c2ccccc21)*; ξW = NC(Cc1c[nH]c2ccccc12)C(=O)O; ξP = O=C(O)C1CCCN1

Legend:
Assay in all cases: NCI anticancer screen, dose series, 48 h
[1] = test system: 786-0
[2] = test system: A549
[3] = test system: ACHN
[4] = test system: BT-549
[5] = test system: CAKI-1
[6] = test system: CCRF-CEM
[7] = test system: COLO 205
[8] = test system: DU-145
[9] = test system: EKVX
[10] = test system: HCC 2998
[11] = test system: HCT-116
[12] = test system: HCT-15
[13] = test system: HL-60
[14] = test system: HOP-62
[15] = test system: HOP-92
[16] = test system: HT-29
[17] = test system: Hs-578T
[18] = test system: IGROV-1
[19] = test system: K562
[20] = test system: KM12
[21] = test system: LOX IMVI
[22] = test system: M14
[23] = test system: MCF7
[24] = test system: MDA-MB-231
[25] = test system: MDA-MB-435
[26] = test system: MOLT-4
[27] = test system: Malme-3M
[28] = test system: NCI-H226
[29] = test system: NCI-H23
[30] = test system: NCI-H460
[31] = test system: NCI-H522
[32] = test system: NCI/ADR-RES
[33] = test system: OVCAR-3
[34] = test system: OVCAR-4
[35] = test system: OVCAR-5
[36] = test system: OVCAR-8
[37] = test system: PC-3
[38] = test system: RPMI-8226
[39] = test system: RXF 393
[40] = test system: SF-268
[41] = test system: SF-295
[42] = test system: SF-539
[43] = test system: SK-MEL-28
[44] = test system: SK-MEL-2
[45] = test system: SK-MEL-5
[46] = test system: SK-OV-3
[47] = test system: SN12C
[48] = test system: SNB-19
[49] = test system: SNB-75
[50] = test system: SR
[51] = test system: SW-620
[52] = test system: T47D
[53] = test system: TK-10
[54] = test system: U-251
[55] = test system: UACC-257
[56] = test system: UACC-62
[57] = test system: UO-31
[58] = test system: A498

Measured: GI50

NC(=O)CNC(=O)C1CCCN1C(=O)C1CCCCNOC(=O)CC[C@@H](NC(=O)OCC2c3ccccc3-c3ccccc32)C(=O)NC(Cc2c[nH]c3ccccc23)C(=O)N1 (some centres undefined) (Fmoc-[dE][ξW][X33][ξP]G-NH2; ester 1-3)
> 100 µM: [12]
inactive: [1] > 100 µM | [2] > 100 µM | [3] > 100 µM | [4] > 100 µM | [5] > 100 µM | [6] > 100 µM | [7] > 100 µM | [8] > 100 µM | [9] > 100 µM | [10] > 100 µM | [11] > 100 µM | [13] > 100 µM | [14] > 100 µM | [15] > 100 µM | [16] > 100 µM | [17] > 100 µM | [18] > 100 µM | [19] > 100 µM | [20] > 100 µM | [21] > 100 µM | [22] 64.4 µM | [23] > 100 µM | [24] 30.6 µM | [25] > 100 µM | [26] > 100 µM | [27] > 100 µM | [28] > 100 µM | [29] > 100 µM | [30] > 100 µM | [31] > 100 µM | [32] > 100 µM | [33] > 100 µM | [34] > 100 µM | [35] 63.5 µM | [36] > 100 µM | [37] > 100 µM | [38] > 100 µM | [39] > 100 µM | [40] > 100 µM | [41] > 100 µM | [42] > 100 µM | [43] > 100 µM | [44] > 100 µM | [45] > 100 µM | [46] > 100 µM | [47] > 100 µM | [48] > 100 µM | [49] > 100 µM | [50] > 100 µM | [51] > 100 µM | [52] > 100 µM | [53] > 100 µM | [54] > 100 µM | [55] > 100 µM | [56] > 100 µM | [57] 20.7 µM

Cn1c(=O)n2n(c1=O)[C@@H](c1ccccc1)[C@H]2c1ccccc1
inactive: [1] > 100 µM | [58] > 100 µM | [2] > 100 µM | [3] > 100 µM | [4] > 100 µM | [5] > 100 µM | [6] > 100 µM | [7] > 100 µM | [9] > 100 µM | [10] > 100 µM | [11] > 100 µM | [13] 20.6 µM | [14] > 100 µM | [15] > 100 µM | [16] > 100 µM | [17] > 100 µM | [18] > 100 µM | [19] 64.3 µM | [20] > 100 µM | [21] > 100 µM | [22] > 100 µM | [23] > 100 µM | [24] > 100 µM | [26] > 100 µM | [27] > 100 µM | [28] > 100 µM | [29] 65.6 µM | [30] > 100 µM | [32] > 100 µM | [33] > 100 µM | [34] > 100 µM | [35] > 100 µM | [36] > 100 µM | [37] > 100 µM | [39] > 100 µM | [41] > 100 µM | [42] > 100 µM | [43] > 100 µM | [44] > 100 µM | [45] > 100 µM | [46] > 100 µM | [47] > 100 µM | [48] > 100 µM | [49] 31 µM | [50] > 100 µM | [51] > 100 µM | [53] > 100 µM | [54] > 100 µM | [55] > 100 µM | [56] > 100 µM | [57] > 100 µM
> 100 µM: [12]
